Assay results taken from patent publication US8178506B2, “Oligomeric compounds and compositions for use in modulation of small non-coding RNAs” (Regulus Therapeutics Inc., priority 2003, dated 2012).
In the oligonucleotide strings, read from the 5' end, every base follows the letter of its sugar. An asterisk marks phosphorothioate; unmarked linkages are phosphodiester. Other units and linkages are bracketed, terminal groups are in braces. A string of capitals states the bases alone. e = 2'-O-(2-methoxyethyl) (MOE); [5mC] = 5-methylcytosine; d = 2'-deoxy (DNA)

Experiments:
BJ cells = assay: Cell cycle assay in BJ cells; type: cell-based, human; settings: 200 nM, 48 hours, relative to untreated control
Method: BJ cells were routinely cultured in MEM high glucose with 2 mM L-glutamine and Earle's BSS adjusted to contain 1.5 g/L sodium bicarbonate and supplemented with 10% fetal bovine serum, 0.1 mM non-essential amino acids and 1.0 mM sodium pyruvate (all media and supplements from Invitrogen Life Technologies, Carlsbad, Calif.). B16-F10 cells were routinely cultured in DMEM high glucose (Invitrogen Life Technologies, Carlsbad, Calif.) supplemented with 10% fetal bovine serum (Invitrogen Life Technologies, Carlsbad, Calif.). T47D cells were cultured in DMEM High glucose media (Invitrogen Life Technologies, Carlsbad, Calif.) supplemented with 10% fetal bovine serum. […] Cells were plated on collagen-coated 24-well plates (Falcon-Primaria #3047, BD Biosciences, Bedford, Mass.) at approximately 50,000 cells per well and allowed to attach to wells overnight.
In further studies, additional cell lines were treated with oligomeric compounds targeted against miRNAs to assess the effects of each oligomeric compound on cell cycling. BJ, B16, T47D, and HeLa cells were cultured and transfected as described above. […] T47Dp53 cells are T47D cells that have been transfected with and selected for maintenance of a plasmid that expresses a wildtype copy of the p53 gene (for example, pCMV-p53; Clontech, Palo Alto, Calif.), using standard laboratory procedures. BJ cells were treated with 200 nM of each oligomeric compound, and T47D, T47Dp53, HeLa, and B16 cells were treated with 150 nM of each oligomeric compound. The human foreskin fibroblast BJ cell line represents a non-cancer cell line, while HeLa, T47D, T47Dp53 cells and the mouse melanoma cell line B16-F10 represent cancerous cell lines. For comparison, oligomeric compounds ISIS 183891 (SEQ ID NO: 847) and ISIS 285717 ([…]; herein incorporated as SEQ ID NO: 857), both targeting the kinesin-like 1/Eg5 mRNA, involved in cell cycling, were used as positive controls. The random-mer ISIS 29848 was used as a negative control. Additionally, the oligomeric compounds ISIS Number 25690 ([…]; herein incorporated as SEQ ID NO: 858) and ISIS Number 25691 ([…]; herein incorporated as SEQ ID NO: 859), targeted to nucleotides 3051-3070 and 3085-3104, respectively, of the mRNA encoding the Drosha RNase III (GenBank Accession NM_013235.2, incorporated herein as SEQ ID NO: 860) were also tested. ISIS Number 25690 and ISIS Number 25691 are 5-10-52′-MOE gapmer compounds, 20 nucleotides in length, with phosphorothioate internucleoside linkages throughout the oligomeric compound. All cytidine residues are 5-methylcytidines. Transfections were performed using the methods described herein. Cells were prepared for flow cytometry 48-hours after oligonucleotide treatment. Results of these studies are shown in Table 35, where data are expressed as percentage of cells in each phase relative to the untreated control cells in that phase.

[1] = tested on: 3′-UTR of the LIM domain only 4 (LMO4) gene; assay: pGL3-LMO4 luciferase assay in HeLa cells; type: cell-based, human; settings: 48 hours
Description: In one embodiment, an expression system based on the pGL3-Control (Promega Corp., Madison Wis.) vector containing a CMV promoter controlling expression of a luciferase reporter sequence was used in transient transfections of HeLa cells with plasmids expressing miRNA or pri-miRNA mimics. To assess the ability of miRNA mimics to bind and regulate the expression of the luciferase reporter gene, two reporter plasmids were constructed: 1) a synthetic DNA fragment comprising two sites perfectly complementary to mir-143 were inserted into the pGL3-Control luciferase reporter vector, to create the pGL3-mir-143 sensor plasmid, and 2) a DNA fragment comprising the 3′-UTR of the LIM domain only 4 (LMO4) gene (predicted to be regulated by mir-143) was inserted into pGL3-Control to create pGL3-LMO4; this fragment was PCR-amplified using a primer beginning at position 1261 of the LMO4 sequence (GenBank Accession NM_006769.2, incorporated herein as SEQ ID: 809) and the downstream primer hybridizing to the poly-A tail. In each of these plasmids, the target site was placed downstream of the luciferase coding sequence and upstream of the polyadenylation signal in the 3′-UTR of the luciferase reporter vector. The unmodified pGL3-Control luciferase reporter vector was used as a control.
HeLa cells were routinely cultured and passaged as described, and on the day before transfection with expression or reporter plasmids, the HeLa cells were seeded onto 24-well plates 50,000 cells/well. Cells were transfected according to standard published procedures with various combinations of plasmids using 2 μg Lipofectamine™ 2000 Reagent (Invitrogen) per μg of plasmid DNA, or, when transfecting oligomeric compounds, 1.25 μg of Lipofectamine™ 2000 Reagent per 100 nM oligonucleotide or double-stranded RNA. The luciferase signal in each well was normalized to the Renilla luciferase (RL) activity produced from a co-transfected plasmid, pRL-CMV, which was transfected at 0.5 μg per well. […]

| Substance | % cells in cell cycle phase G1 (BJ cells) | % cells in cell cycle phase G2/M (BJ cells) | % cells in cell cycle phase S (BJ cells) | % cells in cell cycle phase aneuploid (BJ cells) | % cells in cell cycle phase subG1 (BJ cells) | luciferase expression (% lucif. only control) ([1]; 4 nM) | luciferase expression (% lucif. only control) ([1]; 20 nM) | luciferase expression (% lucif. only control) ([1]; 100 nM) |
| --- | --- | --- | --- | --- | --- | --- | --- | --- |
| 328403 (antisense eA*eG*eG*e[5mC]*e[5mC]*dT*dA*dT*dT*d[5mC]*d[5mC]*dT*dG*dT*dA*eG*e[5mC]*eA*eA*eA) [compound 328403] | 102% | 92% | 95% | 114% | 81% | – | – | – |
| ds-mir-143: double-stranded RNA of ISIS 342199 hybridized to its perfect complement ISIS 342200 (sense UGAGAUGAAGCACUGUAGCUCA; antisense UGAGCUACAGUGCUUCAUCUCA; RNA, backbone not given here) | – | – | – | – | – | 151.6 % lucif. only control | 140.1 % lucif. only control | 128.4 % lucif. only control |
